Test results reported in the NIST ThermoML archive (doi:10.1021/je060271a).
Numbers after ± are expanded uncertainties.

Settings: 283.15 K, Liquid, Vibrating tube method

CCCCCC(=O)OCC(COC(=O)CCCCC)(COC(=O)CCCCC)COC(=O)CCCCC [pentaerythritol tetrahexanoate]
Settings	mass density [kg/m3]
219.9 kPa	1004.3 ± 1.2
220.4 kPa	1004.3 ± 1.2
221.1 kPa	1004.3 ± 1.2
221.3 kPa	1004.1 ± 1.2
222 kPa	1004.2 ± 1.2
222.5 kPa	1004.3 ± 1.2
223.2 kPa	1004.1 ± 1.2
223.5 kPa	1004.4 ± 1.2
224.1 kPa	1004.3 ± 1.2
227.9 kPa	1004.2 ± 1.2
228.4 kPa	1004.2 ± 1.2
228.8 kPa	1004.2 ± 1.2
229.3 kPa	1004.3 ± 1.2
230 kPa	1004.2 ± 1.2
230.8 kPa	1004.4 ± 1.2
231.2 kPa	1004.2 ± 1.2
232.1 kPa	1004.3 ± 1.2
232.4 kPa	1004.2 ± 1.2
233.4 kPa	1004.2 ± 1.2
233.6 kPa	1004.3 ± 1.2
234.8 kPa	1004.1 ± 1.2
236 kPa	1004.3 ± 1.2
237.6 kPa	1004.4 ± 1.2
238.1 kPa	1004.2 ± 1.2
238.8 kPa	1004.2 ± 1.2
239.2 kPa	1004.3 ± 1.2
239.9 kPa	1004.3 ± 1.2
240.7 kPa	1004.2 ± 1.2
241.4 kPa	1004.3 ± 1.2
242 kPa	1004.4 ± 1.2
242.8 kPa	1004.3 ± 1.2
243.5 kPa	1004.3 ± 1.2
243.9 kPa	1004.3 ± 1.2
244.9 kPa	1004.3 ± 1.2
245.6 kPa	1004.1 ± 1.2
246.3 kPa	1004.3 ± 1.2
247 kPa	1004.3 ± 1.2
247.7 kPa	1004.3 ± 1.2
248.6 kPa	1004.3 ± 1.2
249.6 kPa	1004.1 ± 1.2
249.9 kPa	1004.2 ± 1.2
250.5 kPa	1004.3 ± 1.2
251.5 kPa	1004.3 ± 1.2
251.9 kPa	1004.3 ± 1.2
252.2 kPa	1004.3 ± 1.2
252.7 kPa	1004.2 ± 1.2
253.4 kPa	1004.3 ± 1.2
254.6 kPa	1004.3 ± 1.2
255.2 kPa	1004.3 ± 1.2
256 kPa	1004.3 ± 1.2
256.9 kPa	1004.2 ± 1.2
257.8 kPa	1004.4 ± 1.2
258.6 kPa	1004.3 ± 1.2
259.7 kPa	1004.3 ± 1.2
260.5 kPa	1004.3 ± 1.2
261.2 kPa	1004.3 ± 1.2
261.9 kPa	1004.2 ± 1.2
262.8 kPa	1004.2 ± 1.2
263.5 kPa	1004.4 ± 1.3
264.5 kPa	1004.2 ± 1.2
265.2 kPa	1004.2 ± 1.2
266.4 kPa	1004.3 ± 1.2
267 kPa	1004.3 ± 1.2
267.8 kPa	1004.2 ± 1.2
269.1 kPa	1004.3 ± 1.2
269.8 kPa	1004.3 ± 1.2
270.8 kPa	1004.3 ± 1.2
271.7 kPa	1004.3 ± 1.2
272.5 kPa	1004.3 ± 1.2
273.4 kPa	1004.3 ± 1.2
274.4 kPa	1004.2 ± 1.2
275.3 kPa	1004.2 ± 1.2
276.4 kPa	1004.3 ± 1.2
277.6 kPa	1004.4 ± 1.2
278.1 kPa	1004.2 ± 1.2
279.1 kPa	1004.3 ± 1.2
280.5 kPa	1004.2 ± 1.2
281.2 kPa	1004.2 ± 1.2
282.6 kPa	1004.3 ± 1.2
283.7 kPa	1004.3 ± 1.2
284.3 kPa	1004.2 ± 1.2
285.7 kPa	1004.3 ± 1.2
286.8 kPa	1004.3 ± 1.2
287.6 kPa	1004.2 ± 1.2
288.9 kPa	1004.2 ± 1.2
289.6 kPa	1004.4 ± 1.2
290.8 kPa	1004.3 ± 1.2
291.8 kPa	1004.2 ± 1.2
292.9 kPa	1004.3 ± 1.2
294.1 kPa	1004.4 ± 1.2
295.1 kPa	1004.3 ± 1.2
296.5 kPa	1004.2 ± 1.2
297.4 kPa	1004.2 ± 1.2
298.6 kPa	1004.1 ± 1.2
299.8 kPa	1004.2 ± 1.2
300.9 kPa	1004.3 ± 1.2
301.9 kPa	1004.3 ± 1.2
303.3 kPa	1004.4 ± 1.2
304.3 kPa	1004.4 ± 1.2
305.5 kPa	1004.3 ± 1.2
306.8 kPa	1004.2 ± 1.2
308 kPa	1004.4 ± 1.2
309.4 kPa	1004.3 ± 1.2
310.6 kPa	1004.3 ± 1.2
311.5 kPa	1004.3 ± 1.2
313 kPa	1004.3 ± 1.2
314.1 kPa	1004.2 ± 1.2
315.6 kPa	1004.3 ± 1.2
317.2 kPa	1004.3 ± 1.2
318.8 kPa	1004.2 ± 1.2
320.5 kPa	1004.3 ± 1.2
322.2 kPa	1004.3 ± 1.2
324 kPa	1004.3 ± 1.2
325.2 kPa	1004.3 ± 1.2
326.4 kPa	1004.3 ± 1.2
328.3 kPa	1004.2 ± 1.2
329.5 kPa	1004.3 ± 1.2
331.8 kPa	1004.2 ± 1.2
333.3 kPa	1004.3 ± 1.2
335.1 kPa	1004.4 ± 1.2
336.8 kPa	1004.3 ± 1.2
338.4 kPa	1004.3 ± 1.2
340.1 kPa	1004.3 ± 1.2
341.9 kPa	1004.3 ± 1.2
343.1 kPa	1004.3 ± 1.2
344.6 kPa	1004.3 ± 1.2
346.7 kPa	1004.4 ± 1.2
348.1 kPa	1004.4 ± 1.2
349.2 kPa	1004.4 ± 1.2
350.2 kPa	1004.3 ± 1.2
351.1 kPa	1004.4 ± 1.2
352.6 kPa	1004.4 ± 1.2
354.7 kPa	1004.4 ± 1.2
355.6 kPa	1004.3 ± 1.2
357.2 kPa	1004.4 ± 1.2
358.9 kPa	1004.3 ± 1.2
367.6 kPa	1004.3 ± 1.2
369.3 kPa	1004.4 ± 1.2
371.3 kPa	1004.5 ± 1.2
373.2 kPa	1004.2 ± 1.2
375.4 kPa	1004.3 ± 1.2
377.5 kPa	1004.3 ± 1.2
379.4 kPa	1004.4 ± 1.2
381.5 kPa	1004.4 ± 1.2
383.6 kPa	1004.5 ± 1.2
385.7 kPa	1004.2 ± 1.2
387.9 kPa	1004.3 ± 1.2
390 kPa	1004.4 ± 1.2
391.9 kPa	1004.3 ± 1.2
394 kPa	1004.4 ± 1.2
396.6 kPa	1004.3 ± 1.2
398.4 kPa	1004.4 ± 1.2
401 kPa	1004.4 ± 1.2
413.1 kPa	1004.4 ± 1.2
415.2 kPa	1004.3 ± 1.2
417.8 kPa	1004.3 ± 1.2
420.6 kPa	1004.3 ± 1.2
423.2 kPa	1004.4 ± 1.2
425.6 kPa	1004.3 ± 1.2
428.4 kPa	1004.4 ± 1.2
430.9 kPa	1004.5 ± 1.2
434 kPa	1004.4 ± 1.2
436.2 kPa	1004.5 ± 1.2
442.3 kPa	1004.4 ± 1.2
444.9 kPa	1004.4 ± 1.2
448.1 kPa	1004.4 ± 1.2
450.8 kPa	1004.4 ± 1.2
453.4 kPa	1004.4 ± 1.2
456.8 kPa	1004.4 ± 1.2
459.7 kPa	1004.4 ± 1.2
462.7 kPa	1004.4 ± 1.2
466 kPa	1004.4 ± 1.2
469.4 kPa	1004.4 ± 1.2
472.6 kPa	1004.4 ± 1.2
476 kPa	1004.3 ± 1.2
479.5 kPa	1004.3 ± 1.2
482.8 kPa	1004.4 ± 1.4
486 kPa	1004.4 ± 1.2
489.8 kPa	1004.3 ± 1.2
493.6 kPa	1004.3 ± 1.2
496.7 kPa	1004.5 ± 1.2
512 kPa	1004.5 ± 1.2
515.7 kPa	1004.4 ± 1.2
519.1 kPa	1004.5 ± 1.2
523.7 kPa	1004.3 ± 1.2
527.3 kPa	1004.5 ± 1.2
531.3 kPa	1004.4 ± 1.2
535.3 kPa	1004.4 ± 1.2
540.3 kPa	1004.4 ± 1.2
544 kPa	1004.4 ± 1.2
548.5 kPa	1004.5 ± 1.2
553 kPa	1004.5 ± 1.2
557 kPa	1004.5 ± 1.2
561.4 kPa	1004.4 ± 1.2
566.4 kPa	1004.3 ± 1.2
571.4 kPa	1004.5 ± 1.2
576.3 kPa	1004.4 ± 1.2
580.5 kPa	1004.5 ± 1.2
585.3 kPa	1004.4 ± 1.2
590.2 kPa	1004.5 ± 1.2
595.8 kPa	1004.5 ± 1.2
600.1 kPa	1004.5 ± 1.2
604.8 kPa	1004.6 ± 1.2
611.2 kPa	1004.5 ± 1.2
616.8 kPa	1004.5 ± 1.2
621.8 kPa	1004.6 ± 1.2
627.7 kPa	1004.6 ± 1.2
633.3 kPa	1004.5 ± 1.2
638.7 kPa	1004.5 ± 1.2
644.2 kPa	1004.5 ± 1.2
650.7 kPa	1004.4 ± 1.2
657.1 kPa	1004.4 ± 1.2
676 kPa	1004.5 ± 1.2
681.9 kPa	1004.5 ± 1.2
688 kPa	1004.5 ± 1.2
694.4 kPa	1004.5 ± 1.2
700.5 kPa	1004.5 ± 1.2
707.3 kPa	1004.7 ± 1.2
714.2 kPa	1004.5 ± 1.2
720.3 kPa	1004.5 ± 1.2
728 kPa	1004.5 ± 1.2
734.6 kPa	1004.6 ± 1.2
742.2 kPa	1004.6 ± 1.2
749.5 kPa	1004.6 ± 1.2
756.6 kPa	1004.6 ± 1.2
763.9 kPa	1004.6 ± 1.2
771.1 kPa	1004.5 ± 1.2
780.4 kPa	1004.7 ± 1.2
787.7 kPa	1004.6 ± 1.2
796.1 kPa	1004.5 ± 1.2
803.7 kPa	1004.6 ± 1.2
821.4 kPa	1004.6 ± 1.2
829.9 kPa	1004.6 ± 1.2
840 kPa	1004.6 ± 1.2
848.9 kPa	1004.6 ± 1.2
857.7 kPa	1004.6 ± 1.2
866.4 kPa	1004.7 ± 1.2
877.2 kPa	1004.7 ± 1.2
886.2 kPa	1004.6 ± 1.2
895.6 kPa	1004.7 ± 1.2
905.1 kPa	1004.6 ± 1.2
916.6 kPa	1004.8 ± 1.2
926.7 kPa	1004.6 ± 1.2
936.4 kPa	1004.6 ± 1.2
948.2 kPa	1004.6 ± 1.2
958.6 kPa	1004.7 ± 1.2
969.1 kPa	1004.8 ± 1.2
979.3 kPa	1004.6 ± 1.2
989.7 kPa	1004.8 ± 1.2
1001.9 kPa	1004.8 ± 1.2
1012 kPa	1004.7 ± 1.2
1024.5 kPa	1004.7 ± 1.2
1035.1 kPa	1004.8 ± 1.2
1045.3 kPa	1004.6 ± 1.2
1055.6 kPa	1004.8 ± 1.2
1066.1 kPa	1004.7 ± 1.2
1078.8 kPa	1004.6 ± 1.2
1089.1 kPa	1004.8 ± 1.2
1099.8 kPa	1004.8 ± 1.2
1113 kPa	1004.8 ± 1.2
1123.6 kPa	1004.9 ± 1.2
1134.7 kPa	1004.8 ± 1.2
1147.6 kPa	1004.7 ± 1.2
1158.7 kPa	1004.7 ± 1.2
1170 kPa	1004.8 ± 1.2
1183.6 kPa	1004.9 ± 1.2
1194.7 kPa	1004.7 ± 1.2
1206.3 kPa	1004.9 ± 1.2
1218.1 kPa	1004.8 ± 1.2
1229.9 kPa	1004.9 ± 1.2
1241.6 kPa	1004.9 ± 1.2
1258.7 kPa	1005 ± 1.2
1270.9 kPa	1004.9 ± 1.2
1283.6 kPa	1004.8 ± 1.2
1298.2 kPa	1004.8 ± 1.2
1310.3 kPa	1004.8 ± 1.2
1322.8 kPa	1004.8 ± 1.2
1338.1 kPa	1004.9 ± 1.2
1351.5 kPa	1004.8 ± 1.2
1364.1 kPa	1004.9 ± 1.2
1377 kPa	1004.9 ± 1.2
1393.1 kPa	1004.8 ± 1.2
1406.3 kPa	1005 ± 1.2
1420 kPa	1004.9 ± 1.2
1433.4 kPa	1005 ± 1.2
1449.5 kPa	1005 ± 1.2
1462.7 kPa	1005 ± 1.2
1476.5 kPa	1004.8 ± 1.2
1492.4 kPa	1005 ± 1.2
